These results are taken from PubChem BioAssay (NCI).

Values joined by “and” are separate entries in the source; they are usually repeats but may differ in a detail not shown here. Equal values may be shown once.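 Step 1: Grow cells in 96-well plates. Step 2: Expose to compound for 48 hours at 5 concentrations. Step 3: Interpolate endpoints linearly; if unreached, use highest concentration. Here, GI50 denotes the concentration required for 50% inhibition of growth. Definition used: TGI = concentration required for complete inhibition of growth.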

Assay in all cases: NCI-60 cell line screen, 48 h
Assay [1] relates to HL-60(TB) leukemia.
The test system of assay [2] is SNB-75 CNS.
For assay [3], the system named is T-47D breast.
Assay [4] has as its system SR leukemia.
Assay [5] relates to NCI-H460 lung.
The subject of assay [6] is HOP-92 NSCLC.
Assay [7] has as its system CAKI-1 renal.
Assay [8] deals with OVCAR-4 ovarian.
Assay [9] deals with NCI-H226 lung.
The subject of assay [10] is NCI-H23 lung.

As to `CC[C@@H](C)/C=C(C)/C=C/C(=O)c1c(O)c(-c2ccc(O)cc2)cn(OC2CC(=O)CCC(C)OC(=O)CC2O)c1=O` (stereo partly drawn), the GI50 in assay [1] was 0.212 µM; in assay [2] it was 1.07 µM; in [3], 0.383 µM; in assay [4] it was 0.21 µM; in assay [5], 0.267 µM; in assay [6], 0.509 µM. Besides, the GI50 was 0.361 µM in assay [7], 0.233 µM in [8], 0.285 µM in [9] and 0.406 µM in assay [10]. Also, the TGI in assay [1] was 2.86 µM; in [2] it was 19.3 µM; in [3] it was 15.3 µM; in [4] it was 1.27 µM; in assay [5], 2.99 µM; in assay [6] it was 18.6 µM. In addition, the TGI turned out to be 3 µM in assay [7], 26 µM in assay [8], 3.05 µM in [9] and 9.29 µM in assay [10].
On to `CCC(C)C1NC(=O)C(NC(=O)C(CC(C)C)N(C)C(=O)[C@@H]2CC(O)CN2C(=O)[C@H](C)O)C(C)OC(=O)[C@H](Cc2ccc(OC)cc2)N(C)C(=O)[C@@H]2CCCN2C(=O)[C@H](CC(C)C)NC(=O)C(C)C(=O)[C@H](C(C)C)OC(=O)CC1O` (stereo partly drawn), for which the GI50 was 0.154 µM in [1]; 0.0338 µM in assay [2]; 0.0137 µM in assay [3]; 0.0189 µM in [4]; 0.019 µM in [5]; 0.0127 µM in [6]. The values for the GI50 in assay [7], in assay [8] and in assay [9] were 0.229 µM, 0.0246 µM and 0.0799 µM, respectively. For the same compound, the TGI in assay [1] is 2.03 µM; in [2], 1.25 µM and 0.614 µM; in assay [3] it was 0.71 µM and 2.07 µM; in [4], over 100 µM; in assay [5], 1.16 µM and 1.4 µM; in [6], 1.99 µM and 0.285 µM. Moreover, the TGI was 2.99 µM in assay [7]; 1.14 µM and 1.17 µM in [8]; 0.521 µM and 0.572 µM in assay [9]; 0.172 µM in [10].
As to `O=C(CCN1CCCN(c2cnc3ccccc3n2)CC1)c1csc2ccccc12`, the GI50 in [1] is 27.2 µM; in [2], 17.2 µM; in assay [3], 11 µM; in assay [4], 24 µM; in assay [5], 32.8 µM; in [6], 15.8 µM. Also, the GI50 is 17.8 µM in assay [7], 18.5 µM in [8], 21.1 µM in [9] and 20.8 µM in [10]. Besides, the TGI in [1] was 59.7 µM; in [2], 31.6 µM; in assay [3], 25.3 µM; in assay [4] it was 56.7 µM; in [5], over 100 µM; in assay [6] it was 34 µM. For the same compound, the TGI is 31.7 µM in assay [7], 35.1 µM in [8], 38.5 µM in assay [9] and 46.7 µM in assay [10].
For the compound `COC(=O)c1cccc(NC(=O)c2ccc(NC3=C(Cl)C(=O)N(Cc4ccccc4)C3=O)cc2)c1`, the GI50 was 16.8 µM in assay [1]; 18.3 µM in [2]; 4.46 µM in [3]; 1.87 µM in [4]; 30.2 µM in assay [5]; 11 µM in assay [6]. The GI50 in assay [7] was 1.72 µM; in [8] it was 16.1 µM; in assay [9], 7.25 µM; in [10] it was 8.57 µM. The TGI came out at 38.8 µM in assay [1]; 62.6 µM in assay [2]; 63.3 µM in assay [3]; 7.56 µM in assay [4]; 84.6 µM in assay [5]; 23.4 µM in assay [6]. Moreover, the TGI came to 3.14 µM in assay [7], 56.1 µM in assay [8], 35.2 µM in assay [9] and 22.4 µM in assay [10].
Take `COc1ccc(/C=C\c2cc(OC)c(OC)c(OC)c2)c(NS(=O)(=O)c2ccc(F)cc2)c1O`: the GI50 was 0.032 µM in assay [1]; 0.0349 µM in assay [2]; 38.5 µM in [3]; 0.041 µM in [4]; 0.0419 µM in assay [5]; 0.0723 µM in assay [6]. Further, the GI50 in assay [7] is 0.115 µM; in assay [8], 0.552 µM; in [9] it was 0.142 µM; in assay [10] it was 0.128 µM. Besides, the TGI in assay [1] is 23.8 µM; in [2] it was over 100 µM; in [3] it was over 100 µM; in assay [4], over 68.1 µM; in [5], 26.1 µM; in assay [6] it was 16.7 µM. For the same compound, the TGI is over 100 µM in assay [7], over 100 µM in assay [8] and over 62.4 µM in assay [10].
Turning to `COC(=O)Nc1nc2ccc(C(=O)c3ccc(F)cc3)cc2[nH]1`, the GI50 was 0.107 µM in [1]; 0.205 µM in assay [2]; 0.338 µM in [3]; 0.0442 µM in assay [4]; 0.336 µM in assay [5]; 4.81 µM in assay [6]. Besides, the GI50 is 2.34 µM in [7], 1.21 µM in [8], 0.464 µM in [9] and 1.12 µM in [10]. Also, the TGI in [1] is 0.608 µM; in [2], 12.4 µM; in [3], over 100 µM; in assay [4] it was over 100 µM; in assay [5], over 100 µM; in assay [6] it was 50.3 µM. The TGI was over 36.4 µM in assay [7], over 100 µM in assay [8], 3.23 µM in assay [9] and 56.2 µM in [10].
For the compound `Cn1c(=O)c(Oc2ccc(F)cc2F)cc2cnc(NCC(C)(C)O)nc21`, the GI50 in [1], in assay [2], in [3], in [4], in [5] and in assay [6] was over 25 µM in each case. In addition, the GI50 in assay [7], in assay [8], in [9] and in assay [10] was over 25 µM throughout. For the same compound, the TGI in assay [1], in assay [2], in assay [3], in assay [4], in assay [5] and in assay [6] was over 25 µM in each case. In addition, the TGI in assay [7], in assay [8], in [9] and in assay [10] was over 25 µM each time.
